Experimental data: publication PMC6078987, “Molecular insights into antibiotic resistance - how a binding protein traps albicidin” (Nature Communications, 2018)
Values after ≈ are worked out from the molar mass of the structure shown. “Also recorded” adds a separate entry of the source.

How the values were obtained:
Staphylococcus aureus = test system: Staphylococcus aureus; design: method as in PMID 17074789, PMID 25504839; conditions: cited from earlier work
Salmonella enteritidis = test system: Salmonella enteritidis; design: method as in PMID 17074789, PMID 25504839; conditions: cited from earlier work
E. coli DH5α = assay: Agar diffusion assay; format: cell-based
Procedure: To verify the neutralizing ability of AlbAS, AlbAL, AlbASM, AlbASCTD, or AlbASNTD against different compounds, agar diffusion assays with the respective compounds were performed. An overnight culture of E. coli DH5α was diluted to an OD600 of 0.05 with 0.75% LB-agar. The protein-albicidin reaction mixture consisted of a 1:1 mixture of 40 μM albicidin (or derivatives) with 40 μM protein (either AlbAS or its variants AlbAL, AlbASM, AlbASNTD, and AlbASCTD). The mixture was incubated for 20 min at room temperature in the dark. Reaction mixtures of 30 μL were transferred in triplicates of 2 mm holes on the inoculated agar plate. The plates were evaluated concerning growth-inhibition zone after incubation for 18 h at 37 °C.

DNA gyrase = target: DNA gyrase; design: method as in PMID 17074789; conditions: read-out: half maximal inhibitory concentration (IC50); cited from earlier work
AlbAS = target: T1, AlbAS (Klebsiella oxytoca, UniProt Q8KRS7); assay: CD-detected thermal unfolding of AlbAS; format: binding; conditions: 1.5-fold ligand, 20 µM protein; AlbAS alone 66 °C
T1 sequence (Q8KRS7 1-221): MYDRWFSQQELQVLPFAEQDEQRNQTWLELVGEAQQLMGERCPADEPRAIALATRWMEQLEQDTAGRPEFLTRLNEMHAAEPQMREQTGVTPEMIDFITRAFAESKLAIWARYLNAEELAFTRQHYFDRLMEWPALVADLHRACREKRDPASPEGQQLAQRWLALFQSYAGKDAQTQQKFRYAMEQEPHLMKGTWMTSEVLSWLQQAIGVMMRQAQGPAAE
Procedure: (§1) For determination of the melting temperature and information on protein-ligand stability, CD measurements were performed on a J-815 CD spectrometer (Jasco, Groß-Umstadt, Germany). Protein samples (2.0 mM for AlbAS and 0.2 mM for AlbAL) were saturated with 1.5-fold albicidin and diluted to a protein concentration of 20 μM in order to ensure a final DMSO content of only 0.05% for AlbAS and 0.5% for AlbAL. A volume of 250 μL of the reaction mixture was transferred into a quartz cuvette with 1 mm path length. Six far-UV spectra were accumulated in a wavelength range of 195–300 nm (203–300 nm for AlbAL) at three different temperatures (10, 21, and 90 °C) with a scanning speed of 50 nm s^−1. For evaluation of the spectra the measured buffer blank (50 mM sodium hydrogen phosphate and 100 mM NaCl, pH 6.8) was subtracted from the averaged spectra. The temperature curves were recorded from 10–90 °C in 0.5 °C min^−1 steps while monitoring the ellipticity at 215 nm (218 nm for ALbAL). […] The melting temperatures of AlbAS, AlbAS–albicidin, AlbAS–compound 5, AlbAS–compound 7, AlbAL, and AlbAL–albicidin were determined by nonlinear regression of the measured data using Eq. (1). […] The Tm was thus determined by fitting the second transition representing the stabilized domain/species. […]

[1] = test system: AlbAS in competition with gyrase construct GyrBA59; assay: NMR-based in vitro competition experiment of AlbAS and GyrBA59; format: binding, E. coli; conditions: 30 µM each of GyrBA59, AlbAS and albicidin; MgCl2, ATP, pBR322
Procedure: For the competition experiment with the DNA gyrase construct GyrBA59, 1.7 mM ATP was incubated with 3.4 mM MgCl2 for 10 min. Subsequently, 30 µM GyrBA59 and 3 µg supercoiled pBR322 plasmid DNA (Inspiralis) were added and incubated for another 10 min. Finally, 30 µM ^15N-labeled AlbAS were added to the mixture followed by 30 µM albicidin (10% D2O and 5% DMSO final concentration). Owing to the low protein concentrations (to achieve a 1:1 ratio of gyrase and AlbAS), a ^1H-^15N band-selective optimized flip-angle short-transient heteronuclear multiple quantum coherence (SOFAST HMQC)[44] experiment was performed. The ^1H-^15N SOFAST HMQC was recorded with 2048 scans and with acquisition times of 45 and 38 ms for the ^1H and ^15N dimensions, respectively. Measurements were performed at 303.2 K. The control experiment was performed under the same conditions but without the addition of MgCl2, ATP, pBR322 plasmid DNA, and GyrBA59.

AlbAL = AlbAL (Klebsiella oxytoca, UniProt A0A9P0U153); assay: CD-detected thermal unfolding of AlbAL; format: binding; conditions: 1.5-fold ligand, 20 µM protein; AlbAL alone 71 °C
Chain of AlbAL (A0A9P0U153 entry or part of it): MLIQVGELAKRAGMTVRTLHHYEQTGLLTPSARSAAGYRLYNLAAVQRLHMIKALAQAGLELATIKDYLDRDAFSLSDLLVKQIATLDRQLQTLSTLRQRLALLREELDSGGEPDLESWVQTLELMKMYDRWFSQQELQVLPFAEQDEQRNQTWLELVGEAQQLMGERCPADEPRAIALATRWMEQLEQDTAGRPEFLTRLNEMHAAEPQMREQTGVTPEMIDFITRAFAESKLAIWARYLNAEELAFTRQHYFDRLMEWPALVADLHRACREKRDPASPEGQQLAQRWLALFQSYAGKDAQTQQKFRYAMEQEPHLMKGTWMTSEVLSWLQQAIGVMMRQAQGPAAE
Procedure: as §1

In the case of `COc1c(NC(=O)c2ccc(NC(=O)c3ccc(NC(=O)[C@H](CC#N)NC(=O)c4ccc(NC(=O)/C(C)=C/c5ccc(O)cc5)cc4)cc3)c(OC)c2O)ccc(C(=O)O)c1O` [albicidin], the MIC (Staphylococcus aureus) is listed as 4.0 µg/mL (≈ 4.75 µM), the MIC (Salmonella enteritidis) is listed as 0.5 µg/mL (≈ 0.593 µM) and the “neutralization of antibacterial activity by AlbAL” value (E. coli DH5α; 40 µM compound pre-incubated with 40 µM AlbAL) is listed as “albicidin-neutralizing effect”. The “neutralization of antibacterial activity by AlbAS” value (E. coli DH5α; 40 µM compound pre-incubated with 40 µM AlbAS) was “albicidin-neutralizing effect”, the “neutralization of antibacterial activity by AlbASCTD” value (E. coli DH5α; 40 µM compound with 40 µM AlbASCTD) was “failed to suppress the antibacterial effects; also recorded: not able to neutralize albicidin” and the “neutralization of antibacterial activity by AlbASM (N75A, R181A, Q205A)” value (E. coli DH5α; 40 µM compound with 40 µM AlbASM) was “not capable of efficiently suppressing the antibacterial activity”. The “neutralization of antibacterial activity by AlbASNTD” value (E. coli DH5α; 40 µM compound with 40 µM AlbASNTD) was “failed to suppress the antibacterial effects; also recorded: not able to neutralize albicidin”, the IC50 (DNA gyrase) was 0.04 µM and the “melting temperature Tm of AlbAS upon ligand binding” value (AlbAS) was 81 °C. For the same compound, the “competition between AlbAS and GyrBA59 for the ligand (in words)” value [1] was “AlbAS fully populated the albicidin-bound state” and the “melting temperature Tm of AlbAL upon ligand binding” value (AlbAL) was 74 °C.
